Assay results reported in publication PMC5636616, “Studies on the Interaction of the Histone Demethylase KDM5B with Tricarboxylic Acid Cycle Intermediates” (Journal of Molecular Biology, 2017).
Entries after “also recorded” stand apart in the source; their conditions may differ. Read-outs that look alike come from different tables or passages of the source.

How the values were obtained:
BBOX = conditions: cited from earlier work; for IC50: enzyme concentration 0.025 μM
KDM2A = system: KDM2A; parameters: method as in PMID 21460794; conditions: cited from earlier work; for IC50: enzyme concentration 2 μM
TET2 = conditions: cited from earlier work
KDM5B [1] = biological target: T1, KDM5B (Homo sapiens, UniProt Q9UGL1); assay: KDM5B inhibition assay, MALDI-TOF-MS (IC50); type: biochemical
T1 construct: purified recombinant KDM5B (produced in Sf9 insect cells, M1-R822); made in house; host or cells: Sf9 insect cells
T1 sequence (Q9UGL1 1-822): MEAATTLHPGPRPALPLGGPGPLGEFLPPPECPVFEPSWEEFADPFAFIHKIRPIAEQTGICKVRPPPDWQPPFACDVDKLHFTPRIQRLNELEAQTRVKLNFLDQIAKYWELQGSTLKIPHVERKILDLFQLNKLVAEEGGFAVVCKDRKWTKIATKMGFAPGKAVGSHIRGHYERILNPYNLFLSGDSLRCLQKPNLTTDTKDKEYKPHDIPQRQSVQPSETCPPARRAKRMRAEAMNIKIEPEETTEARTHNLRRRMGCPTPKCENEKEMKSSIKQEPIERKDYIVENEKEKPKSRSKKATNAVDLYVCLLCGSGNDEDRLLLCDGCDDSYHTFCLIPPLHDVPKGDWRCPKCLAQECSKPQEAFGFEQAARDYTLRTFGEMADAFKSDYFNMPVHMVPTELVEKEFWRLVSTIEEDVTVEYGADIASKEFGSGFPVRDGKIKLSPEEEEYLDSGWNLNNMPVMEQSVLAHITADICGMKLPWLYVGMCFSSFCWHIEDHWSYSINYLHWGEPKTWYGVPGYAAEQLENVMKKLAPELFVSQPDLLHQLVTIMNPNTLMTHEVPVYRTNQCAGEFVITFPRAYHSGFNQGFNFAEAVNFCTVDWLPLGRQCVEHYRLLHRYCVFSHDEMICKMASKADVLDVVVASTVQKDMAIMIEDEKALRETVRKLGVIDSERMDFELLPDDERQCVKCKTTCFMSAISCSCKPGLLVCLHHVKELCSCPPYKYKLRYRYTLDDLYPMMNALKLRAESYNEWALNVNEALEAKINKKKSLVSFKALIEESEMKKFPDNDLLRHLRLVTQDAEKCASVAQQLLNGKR

KDM5B [2] = biological target: T1, KDM5B; conditions: FDH-coupled assay, truncated KDM5B, cited from earlier work
KDM5B [3] = biological target: T1, KDM5B; assay: KDM5B kinetic assays, MALDI-TOF-MS (Km, Ki with respect to 2OG); type: biochemical; conditions: for mode of inhibition: with respect to 2OG
PHD2 = conditions: cited from earlier work
FIH = conditions: cited from earlier work
KDM4A = system: KDM4A; parameters: method as in PMID 21460794; conditions: read-out: Km^app(2OG); cited from earlier work
KDM4E = conditions: cited from earlier work; for IC50: enzyme concentration 2 μM
ABH2 = system: ABH2; parameters: method as in PMID 21460794; conditions: read-out: Km^app(2OG); cited from earlier work
KDM4C = system: KDM4C; parameters: method as in PMID 21460794; conditions: read-out: Km^app(2OG); cited from earlier work
TET1 = conditions: cited from earlier work
[4] = system: T2, over-expressed KDM5B in U2-OS cells; assay: Immunofluorescence assay of H3K4me3 demethylation in U2-OS cells overexpressing KDM5B; type: cell-based, human; conditions: for inhibition of KDM5B-mediated H3K4me3 demethylation (IF): U2-OS cells overexpressing Flag-tagged WT KDM5B, 24 h treatment, esters dosed up to 5–10 mM
T2 construct: expressed in transfected cells; host or cells: U2-OS osteosarcoma cells, transient transfection with pCDNA5-FRT-TO-3FLAG vector
Experimental: EC50 curves for cells overexpressing Flag-tagged KDM5B. […] Results for dimethyl-2OG (a), dimethyl-succinate (b), dimethyl-D-2HG (c), dimethyl-L-2HG (d), octyl-D-2HG (e), octyl-L-2HG (f), and KDOAM-25 (g). Dashed lines represent IF levels in non-inhibitor controls.
The cellular effects of dimethyl ester precursors of TCA cycle-related metabolites as potential inhibitors of H3K4me3 demethylation were then assessed. We used an established immunofluorescence (IF) procedure with ectopically overexpressed wild-type KDM5B (WT KDM5B) in U2-OS cells and anti-H3K4me3 antibody monitoring for changes in H3K4me3 methylation levels. […] Cells with overexpressed KDM5B were treated with different concentrations of the TCA cycle-related pro-drug esters (previously established as cell permeable in other cell-based studies), [51], [52], [53], [54] for 24 h, the H3K4me3 levels were then analyzed in the transfected cells. The reported KDM5B inhibitor KDOAM-25 ((2)-((((2)-(((2)-(dimethylamino)ethyl)(ethyl)amino)-(2)-oxoethyl)amino)methyl)isonicotinamide) was used as a positive control for inhibition, [55].
Immunofluorescent cell-based assays were performed as reported. The human U2-OS osteosarcoma cells were cultured as a monolayer in Dulbecco's modified Eagle's medium (Invitrogen) supplemented with 10% heat-inactivated fetal bovine serum (Life Technologies) and 1% Glutamax. […] Cells were transiently transfected using cDNA and Lipofectamine 3000 (Life Technologies). Four hours after transfection, the cells were subjected to treatment with serial dilutions of compound. After 24 h, the cells were fixed with 4% formaldehyde and stained with anti-Flag antibody (Sigma F3165), an anti-methylated histone antibody (H3K4me3 DiagenodeC15410003). The cells were then stained with secondary antibodies [Alexa Fluor 488 and Alexa Fluor 568-labeled (Life Technologies)] and 4’,6-diamidino-2-phenylindole. Image acquisition was conducted using Operetta High Content Imaging System (PerkinElmer), and image analysis was performed using the Columbus software (PerkinElmer). A minimum threshold for anti-Flag intensity was set to ensure that only cells highly producing the demethylase were analyzed.

U2-OS cells = assay: Toxicity to U2-OS cells in the cellular assay; type: cell-based, human; conditions: data not shown
isolated KDM5B = system: isolated KDM5B; parameters: method as in PMID 28262558; conditions: AlphaScreen assay; cited from earlier work
[5] = 0.6 μM KDM5B, 3 μM 2OG, 5 μM H3K4me2(1–21), 10 μM Fe(II), 500 μM L-ascorbate, pH 7.5, errors 95% confidence intervals

For `O=C(O)CC[C@@H](O)C(=O)O` [D-2HG, D-2-hydroxyglutarate], the IC50 (BBOX) is listed as 13200 µM, the IC50 (KDM2A) is listed as 106 ± 22 µM and the IC50 (TET2) is listed as 5000 µM.
For `CC(=O)C(=O)O` [Pyruvate, pyruvate], the IC50 (KDM5B [1]; [5]) was “very weak KDM5B inhibitor” and the IC50 (KDM5B [1]; read-out: IC50) was 703 ± 26 µM.
For “H3K4me2(1–21): 21-mer histone H3 peptide fragment dimethylated at lysine-4, KDM5B substrate [reference compound]”, the Km (KDM5B [2]; read-out: Km^app for H3K4me2(1–21)) is given as 0.85 µM and the Km (KDM5B [3]; KDM5B(1–822), 10 μM 2OG, read-out: Km^app(H3K4me2(1–21))) is given as about 0.5 µM.
For `O=C(O)CCC(=O)C(=O)O` [2OG, 2-oxoglutarate], the Km (PHD2; read-out: Km^app(2OG)) is listed as 13 ± 2 µM, the Km (BBOX; read-out: Km^app(2OG)) is listed as 470 µM and the Km (FIH; read-out: Km^app(2OG)) is listed as 110 ± 20 µM. The Km (KDM4A) was 6 µM, the Km (KDM2A; read-out: Km^app(2OG)) was 12.5 µM and the Km (KDM5B [2]; read-out: Km^app(2OG)) was 6 µM. The Km (KDM4E; read-out: Km^app(2OG)) was 13.2 µM, the Km (ABH2) was 10 µM and the Km (KDM4C) was 4 µM. For the same compound, the Km (TET1; read-out: Km^app(2OG)) was 55 ± 20 µM and the Km (TET2; read-out: Km^app(2OG)) was 60 ± 15 µM.
For `CCCCCCCCOC(=O)[C@H](O)CCC(=O)O` [octyl-D-2HG], the “inhibition of KDM5B-mediated H3K4me3 demethylation (IF)” value (from here on “inhibition … (IF)”) [4] was “do not inhibit; also recorded: no inhibition of KDM5B activity was observed”.
For `O=C(O)/C=C/C(=O)O` [Fumarate], the IC50 (PHD2) is listed as 3 µM, the IC50 (FIH) is listed as over 1000 µM and the IC50 (KDM5B [1]) is listed as 210 ± 80 µM. The IC50 (KDM4E) was 2.3 µM, the IC50 (TET1) was 390 ± 160 µM and the IC50 (TET2) was 400 ± 70 µM.
With `COC(=O)CCC(=O)OC` [dimethyl-succinate, dimethylsuccinate] the “inhibition … (IF)” value [4] was “do not inhibit”.
In the case of `O=C(O)CC[C@H](O)C(=O)O` [L-2HG, L-2-hydroxyglutarate], the IC50 (BBOX) is given as 142 ± 30 µM, the IC50 (FIH; enzyme concentration 1 μM) is given as 189 ± 34 µM and the IC50 (KDM2A) is given as 48 ± 15 µM. The IC50 (TET1) was 1000 µM and the IC50 (TET2) was 1600 µM.
In the case of `O=C(O)CC(O)(CC(=O)O)C(=O)O` [Citrate], the IC50 (KDM5B [1]; [5]) is reported as “Inactive”, the IC50 (KDM5B [1]; read-out: IC50) is reported as over 1000 µM and the inhibition at 1000 µM (KDM5B [1]; read-out: inhibition at 1 mM) is reported as 18%.
With `COC(=O)/C=C/C(=O)OC` [dimethylfumarate] the toxic concentration (U2-OS cells) was “higher than 400 μM”, the “inhibition … (IF)” value [4] was “no inhibition of KDM5B activity was observed” and the “inhibition … (IF)” value ([4]; listed as Dimethylfumarate) was “did not show any inhibition at lower concentrations”.
In the case of `COC(=O)CCC(=O)C(=O)OC` [dimethyl-2OG, Dimethyl-2-oxoglutarate], the “inhibition … (IF)” value [4] is reported as “do not inhibit; also recorded: no inhibition of KDM5B activity was observed” and the “change in H3K4me3 levels / KDM5B activity in response to compound” value ([4]; U2-OS cells overexpressing KDM5B, increasing concentrations, 24 h) is reported as “No decrease in the H3K4me3 levels was observed; also recorded: did not show any effect”.
In the case of `COC(=O)CC[C@@H](O)C(=O)OC` [dimethyl-D-2HG], the “inhibition … (IF)” value [4] is reported as “do not inhibit; also recorded: no inhibition of KDM5B activity was observed”.
With `COC(=O)CC[C@H](O)C(=O)OC` [dimethyl-L-2HG] the “inhibition … (IF)” value [4] was “do not inhibit; also recorded: no inhibition of KDM5B activity was observed”.
With `O=C(O)CC(=O)C(=O)O` [Oxaloacetate] the IC50 (KDM5B [1]; read-out: IC50) was 15 ± 10 µM, the “Vm^app” value (KDM5B [3]; in presence of 15 μM oxaloacetate) was 0.0066 µM/s and the “Vm^app” value (KDM5B [3]; in presence of 50 μM oxaloacetate) was 0.0070 µM/s. For the same compound, the “Vm^app” value (KDM5B [3]; in presence of 100 μM oxaloacetate) was 0.0069 µM/s and the mode of inhibition (KDM5B [3]) was 2OG competitive manner.
With `CCCCCCCCOC(=O)[C@@H](O)CCC(=O)O` [octyl-L-2HG] the “inhibition … (IF)” value [4] was “do not inhibit; also recorded: no inhibition of KDM5B activity was observed”.
For `O=C(O)CCC(=O)O` [Succinate, succinate], the IC50 (PHD2) is listed as 19 µM, the IC50 (FIH) is listed as over 1000 µM and the IC50 (KDM5B [1]; read-out: IC50) is listed as 62 ± 19 µM. The IC50 (KDM4E) was 320 µM, the IC50 (TET1) was 540 ± 100 µM and the IC50 (TET2) was 570 ± 190 µM. The Ki (KDM5B [3]; competitive inhibition model, shared/global fit, read-out: Ki (best-fit value, GraphPad Prism global fit)) was 26.8 µM, the “Vm^app” value (KDM5B [3]; in presence of 30 μM succinate) was 0.0044 µM/s and the “Vm^app” value (KDM5B [3]; in presence of 100 μM succinate) was 0.0046 µM/s. For the same compound, the “Vm^app” value (KDM5B [3]; in presence of 300 μM succinate) was 0.0046 µM/s and the mode of inhibition (KDM5B [3]) was 2OG competitive manner.
Compound `O=C(O)CC(O)C(=O)O` (centres unmarked) [Malate, malate] has an IC50 (KDM5B [1]; read-out: IC50) of 127 ± 72 µM.
For `CCN(CCN(C)C)C(=O)CNCc1cc(C(N)=O)ccn1` [KDOAM-25, (2)-((((2)-(((2)-(dimethylamino)ethyl)(ethyl)amino)-(2)-oxoethyl)amino)methyl)isonicotinamide], the IC50 (isolated KDM5B) is listed as 0.019 µM, the “inhibition … (IF)” value [4] is listed as “manifested the expected levels of inhibition; also recorded: observe inhibition” and the “compound concentration at which H3K4me3 fluorescence reaches levels of KDM5B Mut” value ([4]; U2-OS cells overexpressing WT KDM5B, 24 h) is listed as 1 mM.
